Measured values: ChEMBL document CHEMBL1201862, “PubChem BioAssay data set” (2004)
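Growth conditions: 96-well plates. Treatment: test compound, 48 hours, 5 concentrations. Analysis: linear interpolation between bracketing concentrations; unreached endpoints set to highest concentration. GI50 marks 50% less growth.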 Active and inactive are the calls of the source. Rule as the data show it: active = GI50 up to about 1.1 µM and inactive = higher.

Columns and labels:
Assay in all cases: NCI-60 cell line screen, 48 h
NCI-H460 = test system: NCI-H460
NCI-H226 = test system: NCI-H226
NCI-H522 = test system: NCI-H522
LOX IMVI = test system: LOX IMVI
M14 = test system: M14
SK-MEL-2 = test system: SK-MEL-2
NCI-H23 = test system: NCI-H23
TK-10 = test system: TK-10
U-251 = test system: U-251
SN12C = test system: SN12C
UO-31 = test system: UO-31
RXF 393 = test system: RXF 393
K562 = test system: K562
Malme-3M = test system: Malme-3M
ACHN = test system: ACHN
SF-539 = test system: SF-539
SNB-19 = test system: SNB-19

| SMILES | GI50 (NCI-H460) | GI50 (NCI-H226) | GI50 (NCI-H522) | GI50 (LOX IMVI) | GI50 (M14) | GI50 (SK-MEL-2) | GI50 (NCI-H23) | GI50 (TK-10) | GI50 (U-251) | GI50 (SN12C) | GI50 (UO-31) | GI50 (RXF 393) | GI50 (K562) | GI50 (Malme-3M) | GI50 (ACHN) | GI50 (SF-539) | GI50 (SNB-19) |
| --- | --- | --- | --- | --- | --- | --- | --- | --- | --- | --- | --- | --- | --- | --- | --- | --- | --- |
| O=c1c2cc(Br)ccc2nc(CCl)n1-c1ccc(O)c([N+](=O)[O-])c1 | 34.1 µM (inactive) | 14.5 µM (inactive) | 18.8 µM (inactive) | 19 µM (inactive) | 22.3 µM (inactive) | 16 µM (inactive) | 16.7 µM (inactive) | 18.7 µM (inactive) | 38.9 µM (inactive) | 18.8 µM (inactive) | 15.5 µM (inactive) | 12.9 µM (inactive) | 22.4 µM (inactive) | 17.5 µM (inactive) | 26.4 µM (inactive) | 19.2 µM (inactive) |  |
| COC(=O)/C([Se]c1c(C)cc(C)cc1C)=C(/[Se]c1c(C)cc(C)cc1C)C(=O)OC | 78.7 µM (inactive) | > 100 µM (inactive) | > 100 µM (inactive) | > 100 µM (inactive) | > 100 µM (inactive) | > 100 µM (inactive) | > 100 µM (inactive) | > 100 µM (inactive) | > 100 µM (inactive) | > 100 µM (inactive) | > 100 µM (inactive) | > 100 µM (inactive) | > 100 µM (inactive) | > 100 µM (inactive) | > 100 µM (inactive) | > 100 µM (inactive) | > 100 µM (inactive) |
| C=C1CCc2occ(C)c2C2C1C1=C(CC(C)C1=O)C1OC12C (configuration not stated) | > 100 µM (inactive) | > 100 µM (inactive) | 44.8 µM (inactive) | > 100 µM (inactive) | > 100 µM (inactive) | > 100 µM (inactive) | > 100 µM (inactive) | > 100 µM (inactive) | > 100 µM (inactive) | > 100 µM (inactive) | 4.03 µM (inactive) | > 100 µM (inactive) | > 100 µM (inactive) | > 100 µM (inactive) | > 100 µM (inactive) | > 100 µM (inactive) | 26.5 µM (inactive) |
| CCOc1cccc2nc3cccc(C(=O)NCCN(C)C)c3nc12 |  | 0.506 µM (active) | 2.3 µM (inactive) | 0.48 µM (active) | 2.19 µM (inactive) | 1.6 µM (inactive) | 1.39 µM (inactive) | 1.27 µM (inactive) | 1.34 µM (inactive) | 0.719 µM (active) | 2.19 µM (inactive) | 1.59 µM (inactive) | 0.47 µM (active) | 0.995 µM (active) | 0.372 µM (active) | 1.14 µM (inactive) | 1.89 µM (inactive) |
| CSc1ccc(OCC2OC2O)cc1 (configuration not stated) | 29.4 µM (inactive) | 36.8 µM (inactive) | 23.8 µM (inactive) | 16.9 µM (inactive) | 49.5 µM (inactive) | > 77.1 µM (inactive) | 42.5 µM (inactive) | > 50 µM (inactive) | 28.6 µM (inactive) | 62.2 µM (inactive) | 51.6 µM (inactive) | > 63.7 µM (inactive) | 52.8 µM (inactive) | 98.2 µM (inactive) | 40.5 µM (inactive) | 74.8 µM (inactive) | > 92.5 µM (inactive) |
| CC(=O)OCC1=C(CCC#N)N2C(=O)C(NC(=O)Cc3cccs3)C2[S+]([O-])C1 (configuration not stated) | > 100 µM (inactive) | > 100 µM (inactive) | 44.6 µM (inactive) | > 100 µM (inactive) | > 100 µM (inactive) | > 100 µM (inactive) | > 100 µM (inactive) | > 100 µM (inactive) | > 100 µM (inactive) | > 100 µM (inactive) | > 100 µM (inactive) | > 100 µM (inactive) | > 100 µM (inactive) | > 100 µM (inactive) | > 100 µM (inactive) | > 100 µM (inactive) | > 100 µM (inactive) |
| CC(=O)OCCOCNC(=S)N/N=C/c1ccc2ccccc2n1 | 27.5 µM (inactive) | > 100 µM (inactive) | 14.1 µM (inactive) | 43 µM (inactive) | 32.5 µM (inactive) | > 100 µM (inactive) | 73.1 µM (inactive) | 69 µM (inactive) | 29.2 µM (inactive) | 48 µM (inactive) | 31.2 µM (inactive) | 46.2 µM (inactive) | 53.2 µM (inactive) | 55.5 µM (inactive) | 23 µM (inactive) | 46.9 µM (inactive) | > 100 µM (inactive) |
| COc1ccc(OC)c(NCC#N)c1 | > 100 µM (inactive) | > 100 µM (inactive) | > 100 µM (inactive) | > 100 µM (inactive) | > 100 µM (inactive) | > 100 µM (inactive) | > 100 µM (inactive) | > 100 µM (inactive) | > 100 µM (inactive) | > 100 µM (inactive) | > 100 µM (inactive) | > 100 µM (inactive) | > 100 µM (inactive) | > 100 µM (inactive) | > 100 µM (inactive) | > 100 µM (inactive) | > 100 µM (inactive) |
| CC(=O)OCCOCNC(=S)N/N=C/c1cc([N+](=O)[O-])ccc1O | > 100 µM (inactive) | > 100 µM (inactive) | 30.5 µM (inactive) | > 100 µM (inactive) | 86.7 µM (inactive) | > 100 µM (inactive) | > 100 µM (inactive) | > 100 µM (inactive) | > 100 µM (inactive) | > 100 µM (inactive) | > 100 µM (inactive) | > 100 µM (inactive) | > 100 µM (inactive) | > 100 µM (inactive) | > 100 µM (inactive) | > 100 µM (inactive) | > 100 µM (inactive) |
| CC1CC2OC(=O)C3CC(O)CC(=C23)[C@@]12C[C@@H](c1ccoc1)OC2=O (some centres not stated) | > 100 µM (inactive) | > 100 µM (inactive) | > 100 µM (inactive) | > 100 µM (inactive) | > 100 µM (inactive) | > 100 µM (inactive) | > 100 µM (inactive) | > 100 µM (inactive) | > 100 µM (inactive) | > 100 µM (inactive) | > 100 µM (inactive) | > 100 µM (inactive) | > 100 µM (inactive) | > 100 µM (inactive) | > 100 µM (inactive) | > 100 µM (inactive) | > 100 µM (inactive) |
| CCC12C=CCN3CC[C@]4(C(=C(C(=O)OC)[C@@H]1Nc1ncnc5c1ncn5C1OC(COC(C)=O)C(OC(C)=O)C1OC(C)=O)Nc1ccccc14)C32 (some centres not stated) | 2.51 µM (inactive) | 2.36 µM (inactive) | 1.7 µM (inactive) | 1.75 µM (inactive) | 2.62 µM (inactive) | 3.44 µM (inactive) | 1.97 µM (inactive) | 2.87 µM (inactive) | 2.19 µM (inactive) | 2.01 µM (inactive) | 5.62 µM (inactive) | 2 µM (inactive) | 3.18 µM (inactive) | 4.9 µM (inactive) | 2.34 µM (inactive) | 2.18 µM (inactive) | 5.62 µM (inactive) |
| COc1cc2c(c(OC)c1OC)-c1ccc(OC)c(=O)cc1[C@@H](N(C)C=O)CC2 | < 0.0179 µM (active) | 0.162 µM (active) | 0.015 µM (active) | 0.0249 µM (active) | < 0.0122 µM (active) | 0.0135 µM (active) | 0.0168 µM (active) | 1.45 µM (inactive) | < 0.0163 µM (active) | 0.0329 µM (active) | 0.752 µM (active) | 0.0161 µM (active) | 0.0128 µM (active) | 0.0184 µM (active) | 0.0802 µM (active) | 0.0148 µM (active) | 0.0215 µM (active) |
